# Earlier results as cited in patent US6488942B1, “Disinfecting agent” (DDG Dental Devices GmbH, priority 1997, dated 2002).
compound,measurement,value
"CC(=O)O.CC(=O)O.NC(=N\CCCCCC/N=C(N)/N=C(\N)Nc1ccc(Cl)cc1)/N=C(\N)Nc1ccc(Cl)cc1 [diacetate, Chlorhexidine diacetate]",solubility in water,soluble in water
